Experiments:
tumor cell lines = assay: Proliferation of tumor cell lines with redox, NO synthase or cyclooxygenase agents (cell line not given); format: cell-based, human
Description: Potential redox effects of disulfiram were studied in three sets of experiments. The importance of cellular glutathione (GSH) in mediating or modulating thiocarbamate toxicity was studied by measuring levels of intracellular GSH after treatment with disulfiram. […] Also, to assess whether a nonspecific antioxidant effect of disulfiram or PDTC might account for cellular growth inhibition, we studied the effect of the potent lipophilic antioxidant probucol (1.0 to 1,000 μM) on proliferation of malignant cell lines. […] To explore the role of cyclooxygenase inhibition on tumor cell growth, cells were cultured with or without disulfiram in the presence or absence of the cyclooxygenase-1 (COX1) and cyclooxygenase-2 (COX2) inhibitors indomethacin (5μg/ml) or sodium salicylate (1 mM). To probe whether disulfiram might be inducing growth retardation by interruption or stimulation of NO production, proliferation was studied with and without disulfiram in the presence and absence of the nitric oxide […] inhibitor Nω-nitro-L-arginine added to growth medium (100 μM). […] J. Respir. Cell Mol. Biol. 7:574-581 (1992); […], et al. R., supra; S. S. Brar, et al., “Requirement for reactive oxygen species in serum-induced and platelet-derived growth factor-induced growth of airway smooth muscle,” J. Biol. Chem. 274:20017-20026 (1999)). This assay empirically distinguishes between dead and living cells. For proliferation studies, cells were seeded into 24-well uncoated plastic plates (Costar) at 50,000 cells per well and cultured with respective media and mitogens. […] MTT-containing medium was removed, 0.5 ml dimethylsulfoxide (DMSO) was added to each well, and the absorbance of the solubilized purple formazan dye was measured at 540 nm. A total of 4-6 wells were studied at each treatment condition.

M1619 melanoma cells = assay: MTT proliferation assay, M1619 melanoma; format: cell-based, human
Description: Human malignant cell lines were obtained from American Type Tissue Culture Collection (Rockville, Md.). Melanoma cells lines CRL 1585 and 1619 were cultured in RPMI 1640 (GIBCO-BRL, Life Technologies, Grand Island, N.Y.) with 10% FBS and passed with nonenzymatic Cell Dissociation Solution® (Sigma). The prostate adenocarcinoma cell line CRL 1435 (PC-3) was also cultured in RPMI 1640 with 10% FBS but passed with 0.05% trypsin and 0.53 mM EDTA. The squamous lung carcinoma NCI-H520 and the adenosquamous lung carcinoma NCI-H596 cell lines were grown in RPMI 1640 supplemented with 10% FBS, 10 mM HEPES and 1.0 mM sodium pyruvate and passed with trypsin/EDTA. The small cell lung carcinoma NCI-H82 was cultured as a suspension in RPMI 1640 with 10% FBS. All of the above were grown in a 37° C. humidified environment containing 5% CO2/air. The breast carcinoma cell line MDA-MB-453 was grown in a 37° C. humidified environment with free gas exchange with atmospheric air using Leibovitz's L-15 medium with 2 mM L-glutamine and 10% FBS and was passed with trypsin/EDTA.
The effect of disulfiram (0.15 to 5.0 μM), diethyldithiocarbamate (DDC, 1.0 μM) or PDTC (0.625 to 5.0 μM) on proliferation of malignant cell lines was studied in cultures stimulated with 10% FBS. Cell numbers were quantitated 24-72 hours later. In some experiments disulfiram or PDTC were added immediately after cells were plated. In other experiments, cells were plated and allowed to grow for 24-72 hours before fresh media with disulfiram or PDTC was added, and cell numbers were assayed 24-72 hours later.
Finally, a number of dithiocarbamate effects on cells have been attributed to increasing the intracellular levels of copper ions. To further probe the role of copper in mediating cytotoxicity from disulfiram, cells were cultured with or without addition of the impermeate Cu^2+ chelator bathocuprioinedisulfonic acid (BCPS, 100 μM) added to medium to sequester Cu^2+ in the extracellular compartment. Cells were also treated 12 hours with various concentration of disulfiram (0.625 to 5.0 μM) and intracellular copper levels were measured as outlined below.
Proliferation of cultured cells was quantitated using a previously reported calorimetric method based upon metabolic reduction of the soluble yellow tetrazolium dye 3-[4,5-dimethylthiazol]-2yl-2,5-diphenyl tetrazolium bromide (MTT) to its insoluble purple formazan by the action of mitochondrial succinyl dehydrogenase (See, e.g., S. J. Hirst, et al., “Quantifying proliferation of cultured human and rabbit airway smooth muscle in response to serum and platelet derived growth factor,” Am. J. Respir. Cell Mol. Biol. 7:574-581 (1992); R. Dashtaki, et al. R., supra; S. S. Brar, et al., “Requirement for reactive oxygen species in serum-induced and platelet-derived growth factor-induced growth of airway smooth muscle,” J. Biol. Chem. 274:20017-20026 (1999)). This assay empirically distinguishes between dead and living cells. For proliferation studies, cells were seeded into 24-well uncoated plastic plates (Costar) at 50,000 cells per well and cultured with respective media and mitogens.

Question: For `CCN(CC)C(=S)SSC(=S)N(CC)CC` [Disulfiram, tetraethylthiuram disulfide], which inhibition of growth (tumor cell lines; disulfiram alone) is on record?
Answer: 36.8±4.0%

Question: And the inhibition of growth (tumor cell lines; disulfiram plus LNAME)?
Answer: 26.7±3.1%

Question: What about the IC50 (M1619 melanoma cells; Homo sapiens, M1619, grown 24 hours, additional 24 hours, no added CuSO4, read-out: 50% inhibitory (IC50) concentration) of the same compound?
Answer: 625 nM

Question: And the inhibition at 0.625 µM (M1619 melanoma cells; Homo sapiens, disulfiram 0.625 μM, treatment after 24 hours of growth, read-out: Mean Percent Inhibition of Growth)?
Answer: 59 ± 4%

Question: What about the inhibition at 1.25 µM (M1619 melanoma cells; Homo sapiens, disulfiram 1.25 μM, treatment after 24 hours of growth, read-out: Mean Percent Inhibition of Growth) of the same compound?
Answer: 35 ± 4%

Question: And the inhibition at 2.5 µM (M1619 melanoma cells; Homo sapiens, disulfiram 2.5 μM, treatment after 24 hours of growth, read-out: Mean Percent Inhibition of Growth)?
Answer: 39 ± 3%

Question: And the inhibition at 5 µM (M1619 melanoma cells; Homo sapiens, disulfiram 5.0 μM, treatment after 24 hours of growth, read-out: Mean Percent Inhibition of Growth)?
Answer: 37 ± 4%

Question: What about the “100% inhibitory (IC100) concentration” value (M1619 melanoma cells; M1619, with 0.2 μM CuSO4 added to medium, grown 24 hours, additional 24 hours) of the same compound?
Answer: 0.625 µM

Question: And the “growth in vitro of M1619 melanoma” value (M1619 melanoma cells; added at plating, 24 hours)?
Answer: potent inhibitor of growth

Question: And the “A540 of MTT Formazan” value (M1619 melanoma cells; disulfiram 0.6 μM + carmustine 1 μM, 24 hours)?
Answer: 0.042 ± 0.003^C

Question: And the “A540 of MTT Formazan” value (M1619 melanoma cells; disulfiram 0.6 μM + carmustine 10 μM, 24 hours)?
Answer: 0.025 ± 0.002^C

Question: And the “A540 of MTT Formazan” value (M1619 melanoma cells; disulfiram 0.6 μM + carmustine 100 μM, 24 hours)?
Answer: 0.030 ± 0.023

Question: What about the “A540 of MTT Formazan” value (M1619 melanoma cells; disulfiram 0.6 μM + carmustine 1,000 μM, 24 hours) of the same compound?
Answer: 0.004 ± 0.000

Question: And the “A540 of MTT Formazan” value (M1619 melanoma cells; disulfiram 2.5 μM + cisplatin 1 ng/ml, added after 48 hours, additional 24 hours)?
Answer: 1.369 ± 0.033^B

Question: And the “A540 of MTT Formazan” value (M1619 melanoma cells; disulfiram 2.5 μM + cisplatin 10 ng/ml, added after 48 hours, additional 24 hours)?
Answer: 1.221 ± 0.028

Question: And the “A540 of MTT Formazan” value (M1619 melanoma cells; disulfiram 2.5 μM + cisplatin 100 ng/ml, added after 48 hours, additional 24 hours)?
Answer: 1.183 ± 0.038^A

Question: What about the “A540 of MTT Formazan” value (M1619 melanoma cells; disulfiram 2.5 μM + cisplatin 1,000 ng/ml, added after 48 hours, additional 24 hours) of the same compound?
Answer: 0.921 ± 0.027^A

Reference: patent US6548540B2, “Method of treating cancer using dithiocarbamate derivatives” (Charlotte-Mecklenburg Hospital Authority, priority 1998, dated 2003)
